Values joined by “and” are separate entries in the source; they are usually repeats but may differ in a detail not shown here. Equal entries are not always repeated. Marks after values point to notes of the source that are not given here.

Two compounds from article PMC12248599, “Exploring the Bioavailability of Red Grape Skin Extract Polyphenols: A Caco-2 Cell Model Study” (Foods, 2025) can be followed below.

In the data set the test system is Caco-2 cell monolayer. The data set is described as follows: Caco-2 monolayer transport (bioavailability) study, AB and BA directions. Conditions: for detection at the acceptor side of the Caco-2 cell monolayer: AB and BA experiments; for Apical Side 0 min / Apical Side 75 min / Apical Side 90 min / Apical Side 115 min / Apical Side 180 min: AB experiment; for Apical Side 0 min / Apical Side 75 min / Apical Side 90 min / Apical Side 115 min / Apical Side 180 min / Basolateral Side 0 min / Basolateral Side 75 min / Basolateral Side 90 min / Basolateral Side 115 min / Basolateral Side 180 min: donor side. The class given is in vitro ADME, Homo sapiens. The protocol: A reversed phase C18 column (Luna 5 μm C18(2) 100 Å, LC Column 250 × 4.6 mm, Phenomenex) was used to separate the polyphenols at a flow rate of 0.7 mL/min with an injection volume of 60 µL. The detection was carried out at 520 nm for anthocyanins (M3G, D3G and Pet3G), at 328 nm for CA, at 356 nm for flavonols (Q3G, K3Gal and K3G) and at 280 nm for GA and SA. The mobile phases were (A) acetonitrile 100% and (B) water 0.1% trifluoroacetic acid (v/v). The gradient was programmed as follows: 10% A 0 min, 10–80% A (0–20 min), 80–100% A (20–25 min), 100% A (25–30 min); 10% A (30–35 min) and 10% A (35–40 min). Every polyphenol was quantified using the corresponding reference standard calibration curve. Each of the quantified phenolic compound concentration was expressed as mg/mL
For the transport experiment Caco-2 cells were cultured at a density of 4 × 10^4 cells/cm^2 in Transwell inserts (12 mm i.d., 1.12 cm^2 growth area, 0.4 µm mean pore size polycarbonate membranes, Corning Inc., Milwaukee, WI, USA) placed in 12-well plates. Caco-2 cells were grown in DMEM in an incubator at 37 °C in a humidified atmosphere containing 5% CO2.
Bioavailability studies were performed in triplicate after 21 days of cell growth. Only inserts with stable TEER values higher than ≥300 Ω cm^2 were considered acceptable to perform the bioavailability study. For that purpose, DMEM media was removed, the monolayer was washed with PBS and HBSS was supplied to the cells.
Likewise, the GSE stock solution was diluted in HBSS medium to prepare GSE solutions S1 and S2. GSE solutions S1 and S2 had concentrations of 15 mg/mL and 22 mg/mL, respectively. These concentrations were established considering previous studies with grape pomace extracts that concluded that intestinal concentrations of 1–2% (w/v) show potential bioactivities and are safe to be used as a food ingredient.
The apical side represents the intestinal lumen and the basolateral side represents the bloodstream. Each sample (100 µL) was immediately acidified with 1M HCl to a final concentration of 0.007 M and subsequently frozen at −20 °C until analysis by HPLC (according to the method described in Section 2.5). Each experiment was carried out on 3 individual wells. The transport efficiency (TE) percentage was calculated according to Equation (2):Transport efficiency (%) = (C/C0) × 100(2) where, C is the polyphenol concentration at the acceptor side over time and C0 is the initial concentration at the donor side. TE values were calculated for the nine polyphenols identified in the grape skin extract.
The apparent permeability coefficient (Papp) of the polyphenols in GSE was calculated for apical to basolateral side (AB) and basolateral to apical side (BA) flux studies according to Equation (3):Papp (cm/s) = (dQ/dt) × (VR/AC0)(3) where, dQ/dt is the permeability rate which means the steady-state linear rate of change of concentration (mg/L) per second (s) at the acceptor side; A is the surface area of the cell monolayer (1.12 cm^2). C0 is the initial concentration at the donor side (mg/L) at t = 0 s and VR is the volume of the solution of the acceptor side (mL).
The efflux ratio (ER) of the polyphenol was assessed by calculating the Equation (4):ER = Papp (BA)/Papp (AB)(4) where, Papp (BA) is the apparent permeability coefficient of the polyphenol from basolateral to apical side and Papp (AB) is the apparent permeability coefficient from apical to basolateral side. ER is a measure of the relative contributions of active and passive transport to bi-direction flux across the cell monolayer.
A general note: Caco-2 monolayers are a common model of the intestinal barrier.

Setting [1] is: BA experiment, S1 (15 mg/mL GSE).
Setting [2] is: BA experiment, S2 (22 mg/mL GSE).

Take `O=c1c(OC2O[C@H](CO)[C@H](O)[C@H](O)[C@H]2O)c(-c2ccc(O)cc2)oc2cc(O)cc(O)c12` (stereo partly shown) [K3Gal, kaempferol-3-galactoside]: the “detection at the acceptor side of the Caco-2 cell monolayer” value is on record as “not detected”. Moreover, where the note is “S1 (15 mg/mL GSE)”, the “Apical Side 0 min” value was 0.63 ± 0.02 ^a mg/L, the “Apical Side 75 min” value was 0.52 ± 0.02 ^b mg/L, the “Apical Side 90 min” value is on record as 0.45 ± 0.02 ^c mg/L and the “Apical Side 115 min” value is given as 0.39 ± 0.01 ^d mg/L. Where the note is “S1 (15 mg/mL GSE)”, the “Apical Side 180 min” value is on record as 0.35 ± 0.01 ^c mg/L. In addition, for the setting “S2 (22 mg/mL GSE)”, the “Apical Side 0 min” value is recorded as 1.23 ± 0.02 ^a mg/L, the “Apical Side 75 min” value is reported as 1.09 ± 0.02 ^b mg/L, the “Apical Side 90 min” value is 1.01 ± 0.02 ^c mg/L and the “Apical Side 115 min” value is recorded as 0.88 ± 0.02 ^d mg/L. For the same compound, the “Apical Side 180 min” value (S2 (22 mg/mL GSE)) is 0.79 ± 0.02 ^c mg/L. The “reduction in concentration on the basolateral (donor) side” value (BA experiment, S1 (15 mg/mL GSE), 0 to 180 min) is recorded as 81 ± 2%. In addition, under setting [1], the “Basolateral Side 0 min” value is 0.26 ± 0.01 mg/L and 0.26 ± 0.01 ^a mg/L; the “Basolateral Side 75 min” value is reported as 0.19 ± 0.01 ^b mg/L; the “Basolateral Side 90 min” value is 0.13 ± 0.01 ^c mg/L; the “Basolateral Side 115 min” value is 0.08 ± 0.01 ^d mg/L. Also, the “Basolateral Side 180 min” value under setting [1] was 0.05 ± 0.01 mg/L and 0.05 ± 0.01 ^c mg/L. Moreover, under setting [2], the “Basolateral Side 0 min” value is recorded as 0.79 ± 0.02 ^a mg/L, the “Basolateral Side 75 min” value was 0.75 ± 0.02 ^b mg/L, the “Basolateral Side 90 min” value is recorded as 0.71 ± 0.02 ^c mg/L and the “Basolateral Side 115 min” value is 0.67 ± 0.02 ^d mg/L. For the same compound, the “Basolateral Side 180 min” value under setting [2] is recorded as 0.64 ± 0.01 ^c mg/L.
With `OC[C@H]1O[C@@H](Oc2cc3c(O)cc(O)cc3[o+]c2-c2cc(O)c(O)c(O)c2)[C@H](O)[C@@H](O)[C@@H]1O` [D3G, delphinidin-3-O-glucoside], the “detection at the acceptor side of the Caco-2 cell monolayer” value is “not detected”. For the setting “S1 (15 mg/mL GSE)”, the “Apical Side 0 min” value is recorded as 2.1 ± 0.2 ^a mg/L, the “Apical Side 75 min” value is listed as 1.9 ± 0.2 ^a,b mg/L, the “Apical Side 90 min” value is given as 1.8 ± 0.1 ^b,c mg/L and the “Apical Side 115 min” value is listed as 1.6 ± 0.1 ^c mg/L. Further, the “Apical Side 180 min” value (S1 (15 mg/mL GSE)) is on record as 1.5 ± 0.1 ^c mg/L. Also, for the setting “S2 (22 mg/mL GSE)”, the “Apical Side 0 min” value was 4.7 ± 0.1 ^a mg/L, the “Apical Side 75 min” value was 4.4 ± 0.1 ^b mg/L, the “Apical Side 90 min” value was 4.3 ± 0.1 ^c mg/L and the “Apical Side 115 min” value is listed as 4.05 ± 0.09 ^c mg/L. In addition, the “Apical Side 180 min” value (S2 (22 mg/mL GSE)) was 3.94 ± 0.08 ^c mg/L. Under setting [1], the “Basolateral Side 0 min” value was 2.7 ± 0.2 ^a mg/L, the “Basolateral Side 75 min” value was 2.6 ± 0.2 ^a,b mg/L, the “Basolateral Side 90 min” value is recorded as 2.5 ± 0.2 ^b,c mg/L and the “Basolateral Side 115 min” value was 2.4 ± 0.2 ^b,c mg/L. Besides, the “Basolateral Side 180 min” value under setting [1] is listed as 2.3 ± 0.2 ^c mg/L. Moreover, under setting [2], the “Basolateral Side 0 min” value is 3.6 ± 0.2 ^a mg/L, the “Basolateral Side 75 min” value is listed as 3.5 ± 0.2 ^a mg/L, the “Basolateral Side 90 min” value is 3.4 ± 0.2 ^a mg/L and the “Basolateral Side 115 min” value is on record as 3.4 ± 0.2 ^d mg/L. Further, under setting [2], the “Basolateral Side 180 min” value is on record as 3.4 ± 0.2 ^a mg/L.
